Columns and labels:
Assay type in all cases: cell-based, Dickeya dadantii 3937 (Ech3937)
hrpN promoter = hrpN promoter activity, GFP reporter plasmid phrpN, flow cytometry (FACS)
hrpA promoter = hrpA promoter activity, GFP reporter plasmid phrpA, flow cytometry (FACS)
Experimental: (§1) FACS analysis of promoter activity of dspE, hrpA, hrpL, hrpN, and hrpS was carried out as described (Peng et al., 2006). Briefly, the wild-type Ech3937 and the mutant strains carrying the promoter reporter plasmid were grown on LB broth at 28° C. overnight and transferred to appropriate media. For FACS analysis, samples were collected by centrifugation, washed with 1× phosphate buffer saline (PBS) at 13,000 rpm for 1 min, and re-suspended in 1×PBS to ca 10^6 CFU/ml prior to being run in a FACS Calibur flow cytometer (BD Biosciences, CA). Three replicates were performed for each treatment.
To identify potential compounds that repress activation of T3SS, analogs and isomers of TCA and intermediates of salicylic acid and phenypropanoid biosynthesis pathways in plants were further screened for their effect on Ech3937 hrpA expression by flow cytometry (Table 9). A green fluorescent protein (GFP) reporter plasmid phrpA (pProbe-AT derivative with PCR fragment containing hrpA promoter region) was constructed, resulting in a transcriptional fusion of hrpA promoter with GFP gene. Bacterial cells containing phrpA plasmid were grown in MM supplemented with 0.1 mM of each compound. GFP intensity, which is a measurement of hrpA promoter activity, was measured by flow cytometry.

hrpL promoter = hrpL promoter activity, GFP reporter plasmid phrpL, flow cytometry (FACS); conditions: MM + 0.1 mM compound
Experimental: as §1
(§2) Since OCA and TCA induced the expression of hrpN, the effect of these two phenolic compounds on the expression of hrpA, hrpL, and hrpS was investigated further. […] GFP intensity was determined on gated populations of bacterial cells by flow cytometry and analyzed with the Cell Quest software (BD Biosciences, San Jose, Calif.). The lines labeled “1” stand for the GFP expression control base level of the Ech3937 containing pPROBE-AT vector; lines labeled “2” stand for the promoter activity of hrpS, hrpL, hrpA and hrpN in Ech3937 in MM; lines labeled “3” stand for the promoter activity of Ech3937 in MM supplemented with 0.1 mM OCA; lines labeled “4” stand for the promoter activity of hrpL mutant WPP96 in MM; lines labeled “5” stand for the promoter activity of hrpL mutant WPP96 in MM supplemented with 0.1 mM OCA. Values are representative of at least two experiments. […] Compared with MM alone, the average GFP fluorescence intensity of bacterial cells of Ech3937 (phrpA) was doubled when 0.1 mM of OCA and TCA were added to the medium (Table 4; FIG. 3). […] The mrp, whose protein product has an ATPase conserved domain (2e-06), was used as a reference gene in this study.

hrpS promoter = hrpS promoter activity, GFP reporter plasmid phrpS, flow cytometry (FACS); conditions: MM + 0.1 mM compound
Experimental: as §1, §2

mrp promoter = experiment: mrp (reference gene) promoter activity, GFP reporter pmrp, flow cytometry (FACS); conditions: MM + 0.1 mM compound
Experimental: as §1, §2

pPROBE-AT vector = experiment: GFP expression control base level, pPROBE-AT vector, flow cytometry (FACS); conditions: MM + 0.1 mM compound, 12 h (Table 4)
Experimental: as §1, §2

rsmB mRNA = experiment: qRT-PCR relative mRNA level of rsmB; conditions: Ech3937 in supplemented MM vs MM alone (normalized to 1)
Experimental: Bacterial strains were grown in MM. Total RNA from the bacterial cells was isolated by using the TRI reagent method (Sigma, Mo.) and treated with Turbo DNA-free DNase kits (Ambion, TX) as described (Peng et al., 2006). An iScript cDNA Synthesis Kit (Bio-Rad, CA) was used to synthesize cDNA from 0.5 μg of treated total RNA. The Real Master Mix (Eppendorf, Westbury, N.Y.) was used for qRT-PCR reaction to quantify the cDNA level of target genes in different samples. The rplU was used as the endogenous control for data analysis. qRT-PCR data were analyzed using Relative Expression Software Tool as described (Pfaffl, M. W., Horgan, G. W., and Dempfle, L. (2002) Relative expression software tool (REST) for group-wise comparison and statistical analysis of relative expression results in real-time PCR. Nucleic Acids Res 30:e36.).

Ech3937 = experiment: Growth of Ech3937 in MM supplemented with compound; conditions: 0.05, 0.1 and 0.2 mM in MM (FIGS. 2A, 2B)
Excerpt: Phenolic compounds constitute an important class of organic substances produced by plants. The phenolic compound SA is a signaling molecule that plays a role in host defenses. OCA and TCA are the biosynthetic precursors of SA and are also reported to induce the expression of defense-related genes in plants. OCA, TCA, and SA were examined to elucidate their effects on the expression of T3SS genes. The expression of the T3SS gene hrpN was examined in MM and MM supplemented with OCA, TCA, and SA, at concentrations of 0.05, 0.1, and 0.2 mM, respectively. FIGS. 2A and 2B show the promoter activities of hrpN in Dickeya dadantii 3937 (Ech3937) grown in MM and MM supplemented with 0.05, 0.1, and 0.2 mM OCA, TCA, and SA at 12 h (FIG. 2A) and 24 h (FIG. 2B) post-inoculation. GFP intensity was determined on gated populations of bacterial cells by flow cytometry and analyzed with the Cell Quest software (BD Biosciences, San Jose, Calif.). The growth of Ech3937 in MM supplemented with different concentrations of OCA, TCA and SA was recorded. Compared with MM alone, the average GFP fluorescence intensity of bacterial cells of Ech3937 (phrpN) was increased approximately 4-fold when 0.05 mM of OCA and TCA were added to the medium (FIGS. 2A, 2B).
The expression of the T3SS gene hrpA was further examined in MM and MM supplemented with PCA at concentrations of 0.001, 0.005, 0.01, 0.05 and 0.1 mM respectively. FIGS. 16A and 16B show the promoter activities of hrpA in Dickeya dadantii 3937 (Ech3937) grown in minimum medium (MM) and MM supplemented with different amount of p-coumaric acid (PCA) at 12 h (FIG. 16A) and 24 h (FIG. 16B) post-inoculation. GFP intensity was determined on gated populations of bacterial cells by flow cytometry and analyzed with the Cell Quest software (BD Biosciences, San Jose, Calif.). The growth of Ech3937 in MM supplemented with different concentrations of PCA was recorded. Compared with MM alone, the average GFP fluorescence intensity of bacterial cells of Ech3937 (phrpA) was reduced more than 4-fold when 0.05 and 0.1 mM of PCA were added to the medium (FIGS. 16A, 16B).

[1] = MM + 0.1 mM compound, 12 h (Table 4)
[2] = hrpL mutant WPP96, MM + 0.1 mM compound, 12 h (Table 4)
[3] = hrpL mutant WPP96, 12 h (Table 4)

O=C(O)/C=C/c1ccccc1 [TCA, t-cinnamic acid]
increase of average GFP fluorescence intensity of Ech3937 (phrpN) compared with MM alone (hrpN promoter; 0.05 mM compound added to MM, 12 h and 24 h (FIGS. 2A, 2B)): approximately 4 fold
induction of hrpN expression in Ech3937 and in hrpX (WPP67), hrpY (WPP92), hrpS (WPP90) mutants (hrpN promoter; 0.1 mM compound in MM, 12 h (FIG. 5)): induced the expression of hrpN in Ech3937, but not in hrpX, hrpY, and hrpS mutants
GFP Intensity of Ech3937 (phrpN) (hrpN promoter; MM + 0.2 μM compound, 12 h): 65.1 ± 6.8
GFP Intensity of Ech3937 (phrpN) (hrpN promoter; MM + 0.2 μM compound, 24 h): 163 ± 25
GFP Intensity of Ech3937 (phrpN) (hrpN promoter; MM + 0.5 μM compound, 12 h): 73.4 ± 4.2
GFP Intensity of Ech3937 (phrpN) (hrpN promoter; MM + 0.5 μM compound, 24 h): 158 ± 20
GFP Intensity of Ech3937 (phrpN) (hrpN promoter; MM + 5 μM compound, 12 h): 134 ± 5.6
GFP Intensity of Ech3937 (phrpN) (hrpN promoter; MM + 5 μM compound, 24 h): 266 ± 14
GFP Intensity of Ech3937 (phrpN) (hrpN promoter; MM + 10 μM compound, 12 h): 147 ± 18
GFP Intensity of Ech3937 (phrpN) (hrpN promoter; MM + 10 μM compound, 24 h): 284 ± 12
GFP intensity (Mean Fluorescence Intensity) of Ech3937 (phrpN) (hrpN promoter; [1]): 103 ± 1
GFP intensity (Mean Fluorescence Intensity) of WPP96 (phrpN) (hrpN promoter; [2]): 3.3 ± 0
average GFP fluorescence intensity of Ech3937 (phrpA) compared with MM alone (hrpA promoter; 0.1 mM compound, 12 h): doubled
expression of hrpA, GFP intensity (Mean Fluorescence Intensity), Ech3937 carrying phrpA (hrpA promoter; MM + 0.1 mM compound, 6 h (Table 9)): 22.3 ± 2.1
GFP intensity (Mean Fluorescence Intensity) of Ech3937 (phrpA) (hrpA promoter; [1]): 78 ± 0
expression of hrpA, GFP intensity (Mean Fluorescence Intensity), Ech3937 carrying phrpA (hrpA promoter; MM + 0.1 mM compound, 12 h (Table 9)): 133.9 ± 12.9
expression of hrpA, GFP intensity (Mean Fluorescence Intensity), Ech3937 carrying phrpA (hrpA promoter; MM + 0.1 mM compound, 24 h (Table 9)): 203.7 ± 16.1
GFP intensity (Mean Fluorescence Intensity) of WPP96 (phrpA) (hrpA promoter; [2]): 6.2 ± 0.6
promoter activity of hrpL compared with MM alone (hrpL promoter; Ech3937, 12 h): slightly higher promoter activity
GFP intensity (Mean Fluorescence Intensity) of Ech3937 (phrpL) (hrpL promoter; 12 h (Table 4)): 19 ± 1
GFP intensity (Mean Fluorescence Intensity) of WPP96 (phrpL) (hrpL promoter; [3]): 331 ± 27
GFP intensity of Ech3937 (phrpS) compared with MM alone (hrpS promoter; 12 h): slightly lower GFP intensity
GFP intensity (Mean Fluorescence Intensity) of Ech3937 (phrpS) (hrpS promoter; 12 h (Table 4)): 54 ± 2
GFP intensity (Mean Fluorescence Intensity) of WPP96 (phrpS) (hrpS promoter; [3]): 360 ± 16
mrp expression in Ech3937 (pmrp) compared with MM (mrp promoter; 12 h): slightly higher mrp expression
GFP intensity (Mean Fluorescence Intensity) of Ech3937 (pmrp) (mrp promoter; reference gene, 12 h (Table 4)): 105 ± 0.3
GFP intensity (Mean Fluorescence Intensity) of Ech3937 (pPROBE-AT) (pPROBE-AT vector): 1.9 ± 0
rsmB mRNA relative expression ratio (rsmB mRNA): 1.58
bacterial growth of Ech3937 in supplemented MM (Ech3937): No reduction of bacterial growth
